The source of these data is US20200289605A1, “COMPOSITION FOR IMPROVING OR PREVENTING NONALCOHOLIC FATTY LIVER” (KOHJIN LIFE SCIENCES CO., LTD., priority 2015, published 2020).

In assay [1] the test system is subjects who had NAFLD in 31 IU/L or more of ALT.
The test system of assay [2] is Mice (C57/B6J) fed with high-fat food. The text has this:
Mice (C57/B6J, 8 weeks old male) were divided into 4 groups (5 animals each), and the first group (DB) was freely fed with ordinary food (Certified Diet “MF” manufactured by Oriental Yeast Co., ltd.). The second group (HFD) was freely fed with high-fat food (High Fat Diet 32, manufactured by CLEA Japan, Inc.), […].
When the mouse was 20 weeks old, the body weight, the liver weight, the serum aspartate aminotransferase (AST), the alanine aminotransferase (ALT), the serum triglyceride (TG), the free fatty acid value (FFA) and the total cholesterol value (T-cho) were measured.

Setting [3] is: HFD6 and HFD60 groups in comparison to the HFD group, 20 weeks old.
[4] abbreviates: high-fat food mice, glutathione 6 or 60 mg/kg/day in water, 20 weeks old.

With `N[C@@H](CCC(=O)N[C@@H](CS)C(=O)NCC(=O)O)C(=O)O` [glutathione], in assay [1] (Case IDs 10 to 16, 300 mg per day oral), the “Effect of the present invention (ALT criterion)” value was “not affected”. Also, the “FibroScan (after treatment) CAP” value in assay [1] (after treatment, oral glutathione 300 mg per day, one value per subject (Case ID)) was found to be 280 dBe. Moreover, in assay [2] (setting [3]), the “FFA (free fatty acid value)” value was “significant decrease”, the “T-cho (total cholesterol value)” value is reported as “significant decrease”, the “TG (triglyceride value)” value was “significant decrease” and the “serum ALT” value is listed as “significant decrease”. Further, the “serum AST” value in assay [2] (setting [3]) is given as “significant decrease”. Also, in assay [2] (high-fat food mice, glutathione 6 or 60 mg/kg/day in water), the “deposition of fat on the liver by high-fat food” value is reported as “suppressed”. In addition, in assay [2] (setting [4]), the liver weight entry is given as “decreased dependently on the concentration” and the “ratio of liver weight/body weight” value is recorded as “decrease of the body weight ratio was also recognized”.
